Results taken from PubChem BioAssay (NCI).
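Abbreviation: GI50, concentration required for 50% inhibition of growth. At the TGI there is no net growth.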

Tests used:
Assay in all cases: growth of human tumour cells (NCI), 384-well format
[1] = tested on: RXF 393 renal
[2] = tested on: SR leukemia
[3] = tested on: OVCAR-8 ovarian
[4] = tested on: NCI-H23 lung
[5] = tested on: A549 NSCLC
[6] = tested on: MDA-MB-231 breast
[7] = tested on: SF-295 CNS
[8] = tested on: BT-549 breast
[9] = tested on: SF-268 CNS
[10] = tested on: TK-10 renal
[11] = tested on: LOX IMVI melanoma
[12] = tested on: OVCAR-4 ovarian
[13] = tested on: PC-3 prostate
[14] = tested on: COLO 205 colon
[15] = tested on: UO-31 renal
[16] = tested on: MDA-MB-435 melanoma
[17] = tested on: T-47D breast
[18] = tested on: RPMI-8226 leukemia
[19] = tested on: IGROV1 ovarian
[20] = tested on: NCI-H522 lung
[21] = tested on: SK-MEL-5 melanoma
[22] = tested on: OVCAR-3 ovarian
[23] = tested on: SF-539 CNS
[24] = tested on: MOLT-4 leukemia
[25] = tested on: HT29 colon
[26] = tested on: MCF7 breast
[27] = tested on: ACHN renal
[28] = tested on: A498 renal
[29] = tested on: KM12 colon

Nc1ncn([C@H]2C[C@H](OP(=O)(O)OC[C@H]3O[C@@H](n4cnc5c(=O)[nH]c(N)nc54)C[C@@H]3O)[C@@H](CO)O2)c(=O)n1
TGI [1]: 6.21 µM
GI50 [2]: 6.81 µM
TGI [2]: 25.5 µM
GI50 [3]: 10.8 µM
TGI [3]: > 100 µM
GI50 [4]: > 100 µM
TGI [4]: > 100 µM
GI50 [5]: 10.8 µM
TGI [5]: > 100 µM
GI50 [6]: 38.3 µM
TGI [6]: > 100 µM
GI50 [7]: > 100 µM
TGI [7]: > 100 µM
GI50 [8]: 6.95 µM
TGI [8]: 40.6 µM
GI50 [9]: 12.4 µM
TGI [9]: 56.6 µM
GI50 [10]: 32.2 µM
TGI [10]: > 100 µM
GI50 [11]: 13.5 µM
TGI [11]: 37.4 µM
GI50 [12]: > 100 µM
TGI [12]: > 100 µM
GI50 [13]: 28.4 µM
TGI [13]: > 100 µM
GI50 [14]: 68.9 µM
TGI [14]: > 100 µM
GI50 [15]: > 100 µM
TGI [15]: > 100 µM
GI50 [16]: 43.6 µM
TGI [16]: > 100 µM
GI50 [17]: 13 µM
TGI [17]: 47 µM
GI50 [18]: 0.0714 µM
TGI [18]: 0.451 µM
GI50 [19]: > 100 µM
TGI [19]: > 100 µM
GI50 [20]: 4 µM
TGI [20]: 71.3 µM
GI50 [21]: 0.437 µM
TGI [21]: 10.7 µM
GI50 [22]: > 100 µM
TGI [22]: > 100 µM
GI50 [23]: 20.8 µM
TGI [23]: > 100 µM
GI50 [24]: 0.0566 µM
TGI [24]: 0.373 µM
GI50 [25]: 46.5 µM
TGI [25]: > 100 µM
GI50 [26]: 14 µM
TGI [26]: > 100 µM
GI50 [27]: 2.33 µM
TGI [27]: 83.2 µM
GI50 [28]: 37.7 µM
TGI [28]: > 100 µM
GI50 [29]: > 100 µM
TGI [29]: > 100 µM
